Experiment [1] has as its system Saccharomyces cerevisiae cells expressing the catalytic domain of P. aeruginosa ExoA (ExoAc). The experiment can be described thus: Yeast-based compound screen. Type of experiment: cell-based. The note with it: compound 50 μM; for Protection in Yeast: w303 strain, growth restored.
For experiment [2], the system named is C38 cells in the presence of 650 ng/mL of ExoA. The experiment can be described thus: Determination of half-maximal effective concentration (EC50) in C38 cells. The experiment is classed as cell-based, Human. The note with it: 96 h. The procedure:
Cell viability was determined using the same method as the cytoprotection assay. The EC50 values were extrapolated from each corresponding line-of-best-fit (Sigmoidal function in Origin 6.1), and the average values reported±the standard deviation.

For another experiment, the target named is WT ExoAc (Pseudomonas aeruginosa, UniProt P11439). The experiment can be described thus: biochemical. The experiment is classed as binding, P. aeruginosa.
WT ExoAc, sequence (P11439 430-638 limits assumed): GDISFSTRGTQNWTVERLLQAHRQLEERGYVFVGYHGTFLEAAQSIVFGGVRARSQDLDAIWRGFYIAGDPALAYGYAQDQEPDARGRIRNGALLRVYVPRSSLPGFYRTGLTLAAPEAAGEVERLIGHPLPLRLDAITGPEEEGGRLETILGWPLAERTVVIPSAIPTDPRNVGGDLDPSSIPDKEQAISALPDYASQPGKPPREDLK
In the next experiment the target is cholix toxin (Vibrio cholerae, UniProt Q5EK40). The experiment can be described thus: biochemical. Type of experiment: biochemical.
cholix toxin, sequence (Q5EK40 33-666 limits assumed): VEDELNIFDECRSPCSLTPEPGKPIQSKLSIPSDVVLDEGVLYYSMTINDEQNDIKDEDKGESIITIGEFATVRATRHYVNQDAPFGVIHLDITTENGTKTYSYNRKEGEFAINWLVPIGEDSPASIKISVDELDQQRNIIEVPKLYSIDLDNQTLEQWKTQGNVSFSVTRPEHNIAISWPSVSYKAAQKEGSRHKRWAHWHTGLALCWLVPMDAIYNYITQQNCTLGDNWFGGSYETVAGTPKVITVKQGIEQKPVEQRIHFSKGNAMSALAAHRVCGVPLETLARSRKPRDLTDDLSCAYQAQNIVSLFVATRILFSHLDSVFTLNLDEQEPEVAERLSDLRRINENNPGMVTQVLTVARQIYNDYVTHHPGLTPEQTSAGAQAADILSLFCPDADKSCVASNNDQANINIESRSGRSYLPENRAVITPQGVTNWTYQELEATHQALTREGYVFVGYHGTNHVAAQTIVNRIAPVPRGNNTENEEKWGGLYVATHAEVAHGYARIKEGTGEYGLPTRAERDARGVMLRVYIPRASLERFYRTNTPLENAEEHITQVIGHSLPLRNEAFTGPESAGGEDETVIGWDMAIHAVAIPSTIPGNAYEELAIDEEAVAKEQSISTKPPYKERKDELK
Experiment [3] deals with ExoA intoxicated C38 cells. The experiment is classed as cell-based, Human.
Where [4] appears, read: 650 ng/ml ExoA (10-times LD50), NAP and V30 with 0.5% DMSO.

Where two headings read alike, the source gives them in different places. A value given as a limit tells only on which side of the number the result lay.

In the case of `Nc1ccc2c3c(cccc13)C(=O)NC2=O` [Compound 4-NAP, reference compound], in experiment [1], the “Protection in Yeast” value was “++ (25-50% (++))”.
As to `CN(C)Cc1nc2cccc3c2n1CCNC3=O` [Compound P4], the EC50 (commonly the concentration giving half of the maximal effect) in experiment [2] (setting [4]) is 12600 ± 3300 nM. The “Protection in Yeast” value in experiment [1] is on record as “− (Compounds showing less than 5% growth were scored (−))”. The Kd (commonly the constant that tells how readily two partners part at equilibrium) at WT ExoAc (read-out: Kd) was 1380 ± 30 nM. Moreover, the 50% inhibitory concentration (IC50) (in general, the concentration at which inhibition is half-maximal) at cholix toxin (read-out: IC50) was found to be 960 nM. Further, the Ki (in general, a dissociation constant, usually derived from enzyme kinetics or from competition with a known ligand) on cholix toxin (read-out: Ki) amounted to 132 ± 7 nM.
The like results for `O=C1NCCn2c(CCc3ccc(CN4CCCC4)cc3)nc3cccc1c32` [Compound P5] were, in that order, 16700 ± 1900 nM, “− (Compounds showing less than 5% growth were scored (−))”, 750 ± 10 nM, 4460 nM and 582 ± 124 nM.
For the molecule `O=C1NCC2c3cc(S(=O)(=O)O)ccc3Oc3cccc1c32` (centres unmarked) [Compound P8], in experiment [3], the “protection of C38 cells against ExoA (in words)” value (“protection of C38 cells” below) is “modest”. In addition, the “Protection in Yeast” value in experiment [1] was “− (Compounds showing less than 5% growth were scored (−))”. Further, the “difference in affinity between the two binding sites” value at WT ExoAc was roughly 50 fold. Moreover, the Kd is 160 nM on WT ExoAc (read-out: Kd) and 5210 nM at WT ExoAc (read-out: Kd, second (lower affinity) binding constant (converted)). Besides, the IC50 on cholix toxin (read-out: IC50) came out at 1040 ± 136 nM. Also, on cholix toxin (read-out: Ki), the Ki was determined as 136 ± 3 nM.
As for `O=c1cc(NCCNc2cc(=O)oc3ccccc23)c2ccccc2o1` [Compound V1], the “Protection in Yeast” value in experiment [1] is “− (Compounds showing less than 5% growth were scored (−))”.
Still for that read-out and setting: next, `CN1CCN(c2c(N)c(=O)oc3ccccc23)CC1` [Compound V2]: “− (Compounds showing less than 5% growth were scored (−))”; `CCN(CC)CCn1c(NCc2nc3ccccc3n2Cc2ccccc2)nc2ccccc21` [Compound V3]: “− (Compounds showing less than 5% growth were scored (−))”.
As for `O=C(NCCNc1ccnc2cc(Cl)ccc12)c1ccccc1F` [Compound V4], the “Protection in Yeast” value in experiment [1] is on record as “− (Compounds showing less than 5% growth were scored (−))”.
Regarding `O=C(CCCC(=O)Nc1ccc(F)c(Cl)c1)Nc1ccc(F)c(Cl)c1` [Compound V5], the “Protection in Yeast” value in experiment [1] is reported as “toxic (any compound that reduced cell viability to less than 30%)”.
Turning to `Nc1c(C(=O)Nc2ccc(S(N)(=O)=O)cc2)sc2nc3c(cc12)CCCC3` [Compound V6], the “Protection in Yeast” value in experiment [1] was “− (Compounds showing less than 5% growth were scored (−))”.
In the case of `O=C(Nc1c2ccccc2nc2ccccc12)c1ccc([N+](=O)[O-])cc1` [Compound V7], in experiment [1], the “Protection in Yeast” value is given as “toxic (any compound that reduced cell viability to less than 30%)”.
On to `COc1ccc(Nc2nc(N3CCN(CCO)CC3)nc3ccccc23)c(OC)c1` [Compound V8], for which, in experiment [1], the “Protection in Yeast” value is on record as “− (Compounds showing less than 5% growth were scored (−))”.
With `Nc1c(NCCCN2CCOCC2)c2ccccc2oc1=O` [Compound V9], the “protection of C38 cells” value in experiment [3] is listed as “moderate activity”. The “Protection in Yeast” value in experiment [1] is recorded as “− (Compounds showing less than 5% growth were scored (−))”.
Turning to `Cc1cccc(Cn2c(N3CCCCC3C)nc3c2c(=O)[nH]c(=O)n3C)c1` (centres unmarked) [Compound V10], the “protection of C38 cells” value in experiment [3] is listed as “Weak protection”. Moreover, the “Protection in Yeast” value in experiment [1] is reported as “− (Compounds showing less than 5% growth were scored (−))”.
Regarding `CC1(C)C(=O)N(CC(O)Cn2cnc3ccccc32)C(=O)N1CN1C(=O)N(CC(O)Cn2cnc3ccccc32)C(=O)C1(C)C` (centres unmarked) [Compound V11], the “protection of C38 cells” value in experiment [3] is recorded as “Weak protection”. Also, the “Protection in Yeast” value in experiment [1] is “− (Compounds showing less than 5% growth were scored (−))”.
On to `Cn1c(=O)c2[nH]c(CN3CCc4ccccc4C3)nc2n(C)c1=O` [Compound V12], for which, in experiment [3], the “LD50 of ExoA in the presence of compound” value came out at 228 ± 12 ng/mL, the “increase of the LD50 of ExoA” value is roughly 3 fold and the “protection of C38 cells” value is listed as “moderate activity”. The “Protection in Yeast” value in experiment [1] is “− (Compounds showing less than 5% growth were scored (−))”.
Consider `O=C(C1CCCN(Cc2c[nH]c3ccccc23)C1)N1CCCCCC1` (centres unmarked) [Compound V13], for which the “Protection in Yeast” value in experiment [1] is listed as “− (Compounds showing less than 5% growth were scored (−))”.
In the case of `Cc1[nH]c2ccccc2c1CN1CCN(c2ccccn2)CC1` [Compound V14], the “Protection in Yeast” value in experiment [1] is “− (Compounds showing less than 5% growth were scored (−))”.
Turning to `CCn1c(SCc2nc3ccccc3c(=O)[nH]2)nnc1-c1ccc(Cl)cc1` [Compound V15], in experiment [3], the “LD50 of ExoA in the presence of compound” value is 208 ± 41 ng/mL and the “protection of C38 cells” value is listed as “moderate activity”. In experiment [1], the “protection in yeast against ExoAc (in words)” value is listed as “weak protection” and the “Protection in Yeast” value was “+ (5-25% (+))”.
Turning to `Cc1cc(Nc2ccc(O)cc2)c2ccccc2n1.Cl` [Compound V16], the “protection of C38 cells” value in experiment [3] was “Weak protection”. Further, in experiment [1], the “Protection in Yeast” value was “− (Compounds showing less than 5% growth were scored (−))”.
In the case of `Cn1c(=O)c2[nH]c(CNCc3ccccc3Cl)nc2n(C)c1=O` [Compound V17], the “protection of C38 cells” value in experiment [3] is “moderate activity”. Besides, the “Protection in Yeast” value in experiment [1] was “− (Compounds showing less than 5% growth were scored (−))”.
Turning to `COc1ccc(NC(=O)CC2C(=O)N(c3ccc(Cl)cc3)C(=S)N2CCc2ccncc2)cc1` (centres unmarked) [Compound V18], in experiment [1], the “Protection in Yeast” value is reported as “− (Compounds showing less than 5% growth were scored (−))”.
As for `Cn1c(=O)[nH]c(=O)c2c1nc(N1CCCCC1)n2CCCSc1nc2ccccc2s1` [Compound V19], the “Protection in Yeast” value in experiment [1] was “− (Compounds showing less than 5% growth were scored (−))”.
On the same count and under the same terms, next, `O=C(CC1C(=O)NCCN1C(=O)CN1CCN(CCO)CC1)Nc1ccccc1` (centres unmarked) [Compound V20]: “− (Compounds showing less than 5% growth were scored (−))”.
Regarding `COC(=O)c1[nH]c(C)c(C(=O)C2=C(O)C(=O)N(CCCN3CCOCC3)C2c2ccccn2)c1C` (centres unmarked) [Compound V21], the “protection of C38 cells” value in experiment [3] was “Weak protection”. Also, the “Protection in Yeast” value in experiment [1] is “− (Compounds showing less than 5% growth were scored (−))”.
In the case of `CN(C)CCNc1c(N)c(=O)oc2ccccc12` [Compound V22], the “protection of C38 cells” value in experiment [3] is “Weak protection”. Besides, in experiment [1], the “Protection in Yeast” value is listed as “− (Compounds showing less than 5% growth were scored (−))”.
Take `CN1CCN(CCCNc2c(N)c(=O)oc3ccccc23)CC1` [Compound V23]: in experiment [3], the “LD50 of ExoA in the presence of compound” value was found to be 199 ± 30 ng/mL and the “protection of C38 cells” value is reported as “moderate activity”. In experiment [1], the “protection in yeast against ExoAc (in words)” value is listed as “modest protection” and the “Protection in Yeast” value is on record as “++ (25-50% (++))”.
As for `CCN(CC)CCn1c(NCc2ccc(F)cc2)nc2ccccc21.Cl.Cl` [Compound V24], in experiment [3], the “LD50 of ExoA in the presence of compound” value came to 238 ± 16 ng/mL and the “protection of C38 cells” value is recorded as “moderate activity”. Further, the “Protection in Yeast” value in experiment [1] is listed as “− (Compounds showing less than 5% growth were scored (−))”.
`CCOC(=O)c1[nH]c(C)c(C(=O)C2=C(O)C(=O)N(CCCN3CCOCC3)C2c2cccc(F)c2)c1C` (centres unmarked) [Compound V25]: the “protection of C38 cells” value in experiment [3] was “Weak protection”. In experiment [1], the “Protection in Yeast” value is “− (Compounds showing less than 5% growth were scored (−))”.
For the molecule `Brc1cccc(CNc2nc3ccccc3n2CCN2CCOCC2)c1` [Compound V26], the “protection of C38 cells” value in experiment [3] is reported as “Weak protection”. For the same molecule, the “Protection in Yeast” value in experiment [1] is on record as “− (Compounds showing less than 5% growth were scored (−))”.
For `CCc1ccc2ncc(C(=O)O)c(O)c2c1` [Compound V27], the “Protection in Yeast” value in experiment [1] was “− (Compounds showing less than 5% growth were scored (−))”.
On the same count and under the same terms, the value for `CCOC(=O)c1cnc2ccc(OCC)cc2c1Nc1ccc(C)cc1C` [Compound V28] was “toxic (any compound that reduced cell viability to less than 30%)”.
Take `CC1CCCCN1c1nc2c(c(=O)[nH]c(=O)n2C)n1Cc1ccccc1` (centres unmarked) [Compound V29]: in experiment [3], the “protection of C38 cells” value is on record as “Weak protection”. In experiment [1], the “protection in yeast against ExoAc (in words)” value was “weak protection” and the “Protection in Yeast” value is “+ (5-25% (+))”.
The like results for `CC(=O)Nc1c(Nc2ccccc2)c2ccccc2oc1=O` [Compound V31] were, in that order, “Weak protection”, “weak protection” and “+ (5-25% (+))”.
Regarding `O=C1NC(=O)c2cccc3cccc1c23` [NAP, 1,8-naphthalimide, reference compound], in experiment [3], the “protection of C38 cells” value is on record as “excellent protection”. Moreover, the EC50 in experiment [2] (Homo sapiens) was determined as 3800 ± 900 nM. Further, the “Protection in Yeast” value in experiment [1] was “++++ (Compounds found to restore growth to 50-75% (++++))”. The same molecule displayed a dissociation constant Kd at WT ExoAc of 950 ± 30 nM.
Consider `CN(C)CC(=O)Nc1ccc2[nH]c(=O)c3ccccc3c2c1.Cl` [PJ34, N-(6-oxo-5,6-dihydrophenanthridin-2-yl)-(N,N-dimethylamino)acetamide hydrochloride, reference compound], for which the “Protection in Yeast” value in experiment [1] is “− (Compounds showing less than 5% growth were scored (−))”. For the same molecule, the Kd on WT ExoAc came to 820 ± 54 nM. In addition, on cholix toxin, the midpoint of inhibition, the IC50, lay at 280 ± 70 nM and the inhibitory constant (Ki) was determined as 37 ± 9 nM.
Regarding `O=c1[nH]c2ccccc2c2ccccc12` [PJ97A, reference compound], in experiment [3], the “LD50 of ExoA in the presence of compound” value was greater than 750 ng/mL, the “increase of the LD50 of ExoA” value is on record as roughly 12 fold and the “protection of C38 cells” value was “strong protection”. For the same molecule, the Kd at WT ExoAc (read-out: Kd) turned out to be 393 ± 64 nM. The concentration for half-maximal inhibition (IC50) on cholix toxin (read-out: IC50) was 4670 ± 175 nM. Also, the inhibition constant Ki on cholix toxin (read-out: Ki) was found to be 610 ± 175 nM.

For the origin of these results see patent US20120142682A1, “ANT[…] INHIBITING BACTERIAL MONO-ADP-RIBOSYLT[…]” (UNIVERSITY OF GUELPH, priority 2010, published 2012).
